According to patent US9370554B2, “Method for treating breast cancer with prolactin receptor agonists” (Orbis Health Solutions LLC, priority 2010, dated 2016):

Key:
[1] = system: MCF-7 human breast cancer cells; experiment: Tumorsphere formation assay, MCF-7 (Example 1); format: cell-based; conditions: 11 days of treatment, hPRL 0.5 μg/ml, Dox 25 ng/ml, tumorspheres greater than 100 μm, FIG. 1
Method: Tumor sphere formation assay and aldehyde dehydrogenase (ALDH) activity measured by flow cytometry were used to measure the functional response of the CSCs after 11 days of co-treatment with human prolactin (hPRL) and doxorubicin (Dox). MCF-7 and MMTV-neu cells were cultured by standard methods known in the art. Briefly, unsorted MCF-7 cells were plated in ultra-low attachment plate (Corning Inc, Corning, N.Y.) at a density of 5000 cells/ml in serum-free Dulbecco's Modified Eagle Medium—F12 (DMEM-F12) supplemented with 0.4% bovine serum albumin (BSA), 10 ng/mL of basic fibroblast growth factor (bFGF), 20 ng/ml of epidermal growth factor (EGF), 5 μg/ml of insulin (all from Sigma-Aldrich Co., St. Louis, Mo.). Tumorspheres were allowed to form in 37° C. with 5% CO2 for 10 days. Culture medium were replaced two times in the course of treatment. Similar culturing method was applied to MMTV-neu cells in the exception of MMTV-neu cells were plated at a density of 200,000 cells/ml. Cells were treated with 0.5 μg/ml of hPRL, 25 ng/ml of doxorubicin or a combination of 0.5 μg/ml hRPL and 25 ng/ml doxorubicin. After 11 days of treatment, the cells were analyzed for tumorsphere formation and ALDH activity levels. Tumorsphere formation was determined by spheres formed in the culture medium. Spheres number were counted manually under four random fields of the 24-well at 40× magnification.

[2] = system: MCF-7 human breast cancer cells; experiment: ALDH activity by flow cytometry (ALDEFLUOR), MCF-7 tumorspheres (Example 1); format: cell-based; conditions: 11 days, hPRL 0.5 μg/ml, Dox 25 ng/ml, FIG. 2
Method: (§1) MCF-7 human breast cancer cells and primary mouse breast cancer cells isolated from MMTV-neu transgenic mice were used in this study. Tumor sphere formation assay and aldehyde dehydrogenase (ALDH) activity measured by flow cytometry were used to measure the functional response of the CSCs after 11 days of co-treatment with human prolactin (hPRL) and doxorubicin (Dox).
(§2) Cells were treated with 0.5 μg/ml of hPRL, 25 ng/ml of doxorubicin or a combination of 0.5 μg/ml hRPL and 25 ng/ml doxorubicin. After 11 days of treatment, the cells were analyzed for tumorsphere formation and ALDH activity levels.
Accordingly, to determine the number of CSCs in a tumor sample, ALDH activity levels were determined by the ALDEFLUOR kit (StemCell Technologies, Vancouver, BC, Canada). Briefly, tumorspheres were dissociated by trypsin (Invitrogen, Carlsbad, Calif.) at 37° C. for 5 minutes and resuspended in ALDEFLUOR assay buffer containing ALDH substrate (BODIPY-aminoacetaldehyde, 1 μM per 1×10^6 cells). An aliquot of the cells were treated with 7.5 μM of diethylaminobenzaldehyde (DEAB), an inhibitor of ALDH, as the negative control. Samples were incubated in 37° C. with 5% CO2 for 45 minutes and analyzed by FACSCalibur (Becton Dickinson Co., Franklin Lakes, N.J.). The ALDH-positive gate was established using the negative control treated with DEAB.

McNeuA implanted mice = experiment: In vivo combination therapy on McNeuA implanted FVB mice (Example 2); design: species or system mouse; conditions: four-week regimen, weekly Dox with or without daily hPRL injection; for Time to relapse: X, Y are placeholders
Excerpt: Finally, the efficacy of the treatment is examined in vivo by implanting McNeuA cell into FVB mice. Two weeks after tumor cell inoculation, a four-week treatment regimen is applied (weekly Dox with or without daily hPRL injection). Tumor growth and the time to relapse is monitored and compared among groups.

[3] = system: MCF-7, SKBR3 and McNeuA breast cancer cell lines; experiment: Tumorsphere evaluation, all cell lines tested (Example 2); format: cell-based, human and mouse; conditions: 7 and 14 days of treatment
Excerpt: (§3) Three breast cancer cell lines are used in this assay: two human breast cancer cell lines, MCF-7 (ER^high, HER2^low) and SKBR3 (ER^low, HER2^high), and one mouse breast cancer cell line that was established from HER2/neu transgenic mice (McNeuA). After establishing the dose response curves, all three cell lines will be used for two in vitro studies. The cells will be treated with a standard chemotherapeutic drug, doxorubicin (Dox) alone (Max or IC50) or in combination with hPRL (Max or IC50).
First, the functional response of CSCs is measured by standard colony formation and tumorsphere formation assays after 7- and 14 days of treatment using methods described above in Example 2.

[4] = system: MCF-7, SKBR3 and McNeuA breast cancer cell lines; experiment: ALDH testing, cell lines of Example 2; format: cell-based, human and mouse; conditions: Example 2 cell lines; 12, 24 and 48 hours of treatment
Excerpt: as §3
Next, the CSC population is measured by two sets of the stem cell markers, aldehyde dehydrogenase (ALDH) and CD44^high/CD24^low after a 12-, 24- and 48 hours of treatment using flow cytometry methods as described in Example 2.

[5] = system: primary mouse breast cancer cells isolated from MMTV-neu transgenic mice; experiment: Tumorsphere formation assay, MMTV-neu primary cells (Example 1); format: cell-based; conditions: 11 days, hPRL 0.5 μg/ml, ±0.34, p<0.001, data not shown
Method: as §1
MCF-7 and MMTV-neu cells were cultured by standard methods known in the art. Briefly, unsorted MCF-7 cells were plated in ultra-low attachment plate (Corning Inc, Corning, N.Y.) at a density of 5000 cells/ml in serum-free Dulbecco's Modified Eagle Medium—F12 (DMEM-F12) supplemented with 0.4% bovine serum albumin (BSA), 10 ng/mL of basic fibroblast growth factor (bFGF), 20 ng/ml of epidermal growth factor (EGF), 5 μg/ml of insulin (all from Sigma-Aldrich Co., St. Louis, Mo.). Tumorspheres were allowed to form in 37° C. with 5% CO2 for 10 days. Culture medium were replaced two times in the course of treatment. […]
as §2
Tumorsphere formation was determined by spheres formed in the culture medium. Spheres number were counted manually under four random fields of the 24-well at 40× magnification.

COc1cccc2c1C(=O)c1c(O)c3c(c(O)c1C2=O)C[C@@](O)(C(=O)CO)C[C@@H]3O[C@H]1C[C@H](N)[C@H](O)[C@H](C)O1 [Dox, doxorubicin]
number of tumorspheres formed / tumorspheres formation [1]: negligible effect | number of ALDH+ cells (ALDH positive cell population) [2]: no significant change | number of ALDH− cells [2]: decreased | Tumor size (McNeuA implanted mice): decrease | Time to relapse (McNeuA implanted mice): X days after last treatment | tumorsphere formation (number and size of tumorspheres) [3]: negligible affect | number of ALDH-negative cells [4]: reduced | number of ALDH-positive cells [4]: unaffected

B1: human prolactin (protein, UniProt P01236 29-227, looked up)
Prolactin: LPICPGGAARCQVTLRDLFDRAVVLSHYIHNLSSEMFSEFDKRYTHGRGFITKAINSCHTSSLATPEDKEQAQQMNQKDFLSLIVSILRSWNEPLYHLVTEVRGMQEAPEAILSKAVEIEEQTKRLLEGMELIVSQVHPETKENEIYPVWSGLPSLQMADEESRLSAYYNLLHCLRRDSHKIDNYLKLLKCRIIHNNNC
number of tumorspheres formed / tumorspheres formation [1]: slightly increased | increase of tumorspheres formation [5]: 2.3 fold | Tumor size (McNeuA implanted mice): increase comparable to “no | Time to relapse (McNeuA implanted mice): no remission | tumorsphere formation (number and size of tumorspheres) [3]: negligible affect | number of ALDH-negative cells [4]: negligible affect | number of ALDH-positive cells [4]: negligible affect
